Assays:
[1] = In vitro release from leuprolide acetate/HSA microspheres (Example 5); format: physicochemical; conditions: leuprolide acetate/HSA/dextran sulfate/PEG/PVP microspheres
Description: A 0.010 mL aliquot of a solution of 10-100 mg/mL leuprolide acetate in water (LHRH, TAP Pharmaceuticals, Deerfield, Ill.) was added to 0.168 mL of a 2-10% (weight/volume) solution of dextran sulfate in water (average molecular weight 500 kDa), and the solution was thoroughly mixed. To the leuprolide/dextran solution was added a 0.856 niL aliquot of a solution containing 25% (weight/volume) polyethylene glycol, having an average molecular weight of 3.35 kDa (Spectrum, Gardena, Calif.), and 25% (weight/volume) polyvinylpyrrolidone, having an average molecular weight of 40 kDa, in an aqueous solution of 0.1M sodium acetate, pH 5.5. The resulting solution was thoroughly mixed and allowed to stand for up to 30 minutes. A 0.25 mL aliquot of a 20% (weight/volume) solution of human serum albumin (Sigma Chemical Co., St. Louis, Mo.) in water was then added to the solution. The final solution was thoroughly mixed and placed in a water bath at between 70° C. and 90° C. for a period of time between 30 minutes and 3 hours.
In vitro release of leuprolide acetate was measured by centrifugation of microspheres and resuspension in a phosphate buffered saline release medium.

[2] = human serum albumin microspheres; 0.01M, 0.1M or 1M zinc sulfate
Description: Nafarelin acetate (Roche Laboratories, Nutley, N.J.) was dissolved in deionized water to produce a 10 mg/ml solution.
To 1 mg of nafarelin acetate was added 10 mg of the human serum albumin microspheres. The mixture was vortexed and mixed for 16 hours at 4° C. A 3M ammonium sulfate solution was added to the mixture to a final concentration of 0.5M and vortexed and mixed for 15 minutes at ambient temperature.
The mixtures were centrifuged, supernatant decanted and pellet resuspended in deionized water three times to wash the microspheres.

[3] = HSA microspheres, carbonyl diimidazole coupling
Description: Carbonyl diimidazole (100 mg, Sigma Chemical Co., St. Louis, Mo.) was added to a solution of 36 mg of the antiviral drug Virazole Registered TM (ICN Pharmaceuticals, Inc., Costa Mesa, Calif.) in 0.2 ml of dimethylformamide (DMF). The resulting mixture was allowed to stand at room temperature for four hours. To the mixture was added a mixture of 0.2 ml of human serum albumin (HSA) (25%, Armour Pharmaceutical Co., Collegeville, Pa.) and 0.4 ml of deionized water. The mixture was incubated for 30 minutes at room temperature, for 30 minutes at 37° C., and for 30 minutes at 58° C. and then cooled to room temperature. Particles were isolated by centrifugation, washed with deionized water three times and resuspended in 20 ml of water.

[4] = set-up: species or system dogs; conditions: dog
Description: The microspheres were formed and precipitated from solution. […] Estradiol was then loaded into human serum albumin microspheres at 3 different weight percent loadings. The estradiol was dissolved in ethyl alcohol and incubated in the presence of the albumin microspheres. […] The 10% by weight estradiol containing microspheres contained 1 mg of estradiol and 8.33 mg of Human Serum Albumin (HSA). The 49% by weight estradiol containing microspheres contained 8.15 mg of estradiol and 8.33 mg of HSA. The 77% by weight estradiol containing microspheres contained 27.68 mg of estradiol and 8.33 mg of HSA
The microspheres were injected into five dogs and the resulting serum concentrations were determined by radioimmuno assay for estradiol.

SMILES	effect of additive on release of protein and peptide from the microspheres [1]	percentage of drug incorporated into the particles [3]	further results
O=S(=O)([O-])[O-].[Zn+2] [zinc sulfate]	retarded the release		effect of additive on rate of release of nafarelin acetate [2]: reduced the rate of release
NC(=O)c1ncn([C@@H]2O[C@H](CO)[C@@H](O)[C@H]2O)n1 [Virazole Registered TM]		10%	
C[C@]12CC[C@@H]3c4ccc(O)cc4CC[C@H]3[C@@H]1CC[C@@H]2O [estradiol control, estradiol]			half life of estradiol in vivo [4]: shortest half life
CCCCCCCC(=O)O [caprylic acid]	retarded the release		
CO[C@H]1/C=C/O[C@@]2(C)Oc3c(C)c(O)c4c(O)c(c(/C=N/N5CCN(C)CC5)c(O)c4c3C2=O)NC(=O)/C(C)=C\C=C\[C@H](C)[C@H](O)[C@@H](C)[C@@H](O)[C@@H](C)[C@H](OC(C)=O)[C@@H]1C [Rifampicin TM, 3-[4-methylpiperazinyliminomethyl] rifamycin]		greater than 6.8%	
